Experimental data: US20050069531A1, “Use of hyaluronidase in the manufacture of an ophthalmic preparation for liquefying vitreous humor in the treatment of eye disorders” (priority 1995, published 2005)
Like-named read-outs stand apart in the source and are kept apart here.

Tested on: eyes of rabbits
Settings: rabbit, intravitreal
Text: Fifty-two (52) healthy rabbits of the New Zealand Cross Variety (26 male, 26 female) weighing 1.5 kg to 2.5 kg, were individually marked for identification and were housed individually in suspended cages. The animals received a commercially available pelleted rabbit feed on a daily basis, with tap water available ad libitum.
The animals were divided into thirteen groups of 4 animals each (2 male, 2 female). Two animals in each group (1 male, 1 female) were selected for pretreatment fundus photography and fluorescein angiography.
The fundus photography was performed by restraining the animals and visualizing the optic nerve, retinal arcades with fundus with a KOWA® RC-3 Fundus Camera loaded with Kodak Gold 200 ASA film.
The fluorescein angiography involved a 1.5 ml injection of 2% sterile fluorescein solution via the marginal ear vein. Approximately 30 seconds post-injection the fluorescein was visualized upon localization of the optic nerve, retinal vessels and fundus.
The following day, each animal was anesthetized by intravenous administration of a combination of 34 mg/kg of ketamine hydrochloride and 5 mg/kg xylazine. The eyelids were retracted using a lid speculum, and the eyes were disinfected with an iodine-providone wash.
The experimental treatments administered to each animal group were as follows:
The day following the injections (Day 1), the 26 animals which were subjected to the fundus photography and fluorescein angiography were observed using the same methods as for the pre-dose examination.
The eyes were then surgically removed and placed in a fixture solution of 2.5% glutaraldehyde with 0.1 M phosphate buffered saline at pH 7.37.
Alternatively, one randomly selected rabbit was euthanized by pentobarbital injection but then fixed by intracardiac injection of the glutaraldehyde solution into the left ventricle to determine the effect of the fixation procedure on the histology findings within the enucleated eyes.
On Day 7, the 13 female rabbits that had been previously photographed and angiography performed were subjected to the same observations following the methods previously described.
The remaining 26 animals were euthanized as described above 7 days after dosing. The eyes were fixed in the same manner as those which had been fixed on day 2. Also, one randomly selected rabbit was subjected to the same intracardiac glutaraldehyde fixation procedure described hereabove for the previously randomly selected animal.
The eyes of the animals treated in this example were examined grossly and microscopically for evidence of treatment-related toxicities.

thimerosal [BSS+thimerosal]
evidence of treatment-related toxicity in the eyes (gross and microscopic examination) (0.0075 mg thimerosal in BSS, day 2 post-dose): free of toxicity | toxic effects observed on day 7 (FIG. 3) (0.0075 mg thimerosal in BSS, day 7): significant toxic effects | evidence of treatment-related toxicity in the eyes (gross and microscopic examination) (0.0075 mg thimerosal in BSS, day 7 post-dose): breakdown of the blood-retinal barrier | evidence of treatment-related toxicity in the eyes (gross and microscopic examination) (0.025 mg thimerosal in BSS, days 2 and 7 post-dose): severe treatment-related toxic effects | toxic effects in the eyes of rabbits (conclusion) (at the dosages tested): do cause toxic effects
